Reference: paper PMC4703981, “Autophosphorylation at Thr279 of Entamoeba histolytica atypical kinase EhAK1 is required for activity and regulation of erythrophagocytosis” (Scientific Reports, 2016)

Target: T1, EhAK1 (Entamoeba histolytica, UniProt C4M9G9)
T1 construct: gene EHI_105830
Details: maximal quench on ATP titration, no affinity constant

T1 sequence (C4M9G9 entry or part of it): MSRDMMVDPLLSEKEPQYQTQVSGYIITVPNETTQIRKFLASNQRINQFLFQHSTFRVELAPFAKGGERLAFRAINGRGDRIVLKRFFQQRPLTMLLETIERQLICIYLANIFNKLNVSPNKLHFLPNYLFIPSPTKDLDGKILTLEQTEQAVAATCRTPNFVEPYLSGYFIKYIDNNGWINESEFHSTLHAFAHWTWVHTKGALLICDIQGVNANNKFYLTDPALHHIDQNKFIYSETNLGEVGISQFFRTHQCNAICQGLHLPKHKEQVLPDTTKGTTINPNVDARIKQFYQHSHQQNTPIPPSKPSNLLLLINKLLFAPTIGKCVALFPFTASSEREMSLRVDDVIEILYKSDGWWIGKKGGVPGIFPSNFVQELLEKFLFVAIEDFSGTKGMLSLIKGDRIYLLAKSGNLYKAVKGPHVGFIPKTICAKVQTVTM

Compound: Nc1ncnc2c1ncn2[C@@H]1O[C@H](COP(=O)(O)OP(=O)(O)OP(=O)(O)O)[C@@H](O)[C@H]1O [ATP]
- % decrease in Trp fluorescence: 76%
